Experimental data reported in patent publication US9599759B2, “Patterned polarizing film and its production process” (Sumitomo Chemical Company, Limited, priority 2014, dated 2017).

Assay: Saturated solubility at 23° C. of each dichroic dye in certain solvents (LC quantification)
Type: physicochemical
Conditions: 24 hours agitation; for saturated solubility in ethanol: solvent ethanol; for saturated solubility in ethyl acetate: solvent ethyl acetate; for saturated solubility in isopropyl alcohol: solvent isopropyl alcohol; for saturated solubility in methanol: solvent methanol; for saturated solubility in propylene glycol 1-monomethyl ether 2-acetate: solvent propylene glycol 1-monomethyl ether 2-acetate; for saturated solubility in propylene glycol 1-monomethyl ether: solvent propylene glycol 1-monomethyl ether; for saturated solubility in tetrahydrofuran: solvent tetrahydrofuran
Description: [Measurement Method of Saturated Solubility]
This solution was sampled, and was dissolved together with 5 ml of a standard liquid in tetrahydrofuran to prepare a measurement solution. […] The standard liquid was prepared from 10 ml of hexylbenzene and 1000 ml of acetonitrile.
The liquid chromatograph (LC) measurement was carried out in the following condition.
Used column: KinetexC18, 2.6 μm, 100 mm×4.6 mm diameter
Column temperature: 40° C.
• (A liquid) 0.1%(v/v)—TFA/water • (B liquid) 0.1%(v/v)—TFA/acetonitrile 500/THF 50% • Gradient condition 0 min A liquid 60%, B liquid 40% • 30 min A liquid 0%, B liquid 100% • 35 min A liquid 0%, B liquid 100% • 35.1 min A liquid 60%, B liquid 40% • 45 min STOP TOTAL 45 min • Flow volume: 1.0 mL/min • Injection amount: 5 μL • Detection method: UV (254 nm)

saturated solubility in ethanol [% by mass] | saturated solubility in ethyl acetate [% by mass] | saturated solubility in isopropyl alcohol [% by mass] | saturated solubility in methanol [% by mass] | saturated solubility in propylene glycol 1-monomethyl ether 2-acetate [% by mass] | saturated solubility in propylene glycol 1-monomethyl ether [% by mass] | saturated solubility in tetrahydrofuran [% by mass] | Structure (SMILES)
0.003 | 0.059 | 0.002 | 0.001 | 0.077 | 0.028 | 0.33 | CCCCc1ccc(N=Nc2ccc(N=Nc3ccc(N4CCCC4)cc3)cc2)cc1 [dichroic dye 1]
0.001 | 1.3 | 0.043 | 0.001 | 0.89 | 0.336 | 4.5 | CCCCc1ccc(N=Nc2ccc(N=Nc3ccc(OCCC)cc3)cc2)cc1 [dichroic dye 2]
